According to ChEMBL document CHEMBL1275260, “N-acetylcysteine-mediated modulation of bacterial antibiotic susceptibility” (2010):
In brackets after ≈: the same amount, converted by molar mass. Activity calls are given as the source filed them. The calls are words filed in the database; no cut-off is given here.

Assays:
Escherichia coli [1] = assay: Antibacterial activity against Escherichia coli DH5alpha in presence of 10 mM N-Acetylcysteine; assay type: functional; settings: DH5[alpha]
Escherichia coli [2] = assay: Antibacterial activity against Escherichia coli DH5alpha; assay type: functional; settings: DH5[alpha]
Escherichia coli [3] = assay: Antibacterial activity against Escherichia coli W3110; assay type: functional; settings: K-12 substr. W3110
Escherichia coli [4] = assay: Antibacterial activity against Escherichia coli MG1655 in presence of 10 mM N-Acetylcysteine; assay type: functional
Escherichia coli [5] = assay: Antibacterial activity against Escherichia coli MG1655; assay type: functional
Pseudomonas aeruginosa [6] = assay: Antibacterial activity against Pseudomonas aeruginosa NCIM 5029; assay type: functional
Pseudomonas aeruginosa [7] = assay: Antibacterial activity against Pseudomonas aeruginosa NCIM 5029 in presence of 10 mM N-Acetylcysteine; assay type: functional
Klebsiella aerogenes [8] = assay: Antibacterial activity against Klebsiella aerogenes NCIM 2281; assay type: functional
Klebsiella aerogenes [9] = assay: Antibacterial activity against Klebsiella aerogenes NCIM 2281 in presence of 10 mM N-Acetylcysteine; assay type: functional
Klebsiella pneumoniae = assay: Antibacterial activity against Klebsiella pneumoniae NCIM 2883 assessed as growth inhibition in presence of 10 mM N-Acetylcysteine; assay type: functional, organism-based
Escherichia coli [10] = assay: Antibacterial activity against Escherichia coli W3110 in presence of 10 mM N-Acetylcysteine; assay type: functional; settings: K-12 substr. W3110

Structure (SMILES) | MIC (Escherichia coli [1]) | MIC (Escherichia coli [2]) | MIC (Escherichia coli [3]) | MIC (Escherichia coli [4]) | MIC (Escherichia coli [5]) | MIC (Pseudomonas aeruginosa [6]) | MIC (Pseudomonas aeruginosa [7]) | MIC (Klebsiella aerogenes [8]) | MIC (Klebsiella aerogenes [9]) | Activity (Klebsiella pneumoniae) | MIC (Escherichia coli [10])
CC1(C)S[C@@H]2[C@H](NC(=O)[C@H](N)c3ccccc3)C(=O)N2[C@H]1C(=O)O [AMPICILLIN] | 4 µg/mL | 4 µg/mL (≈ 11.4 µM) | 8 µg/mL (≈ 22.9 µM) | 1 µg/mL | 4 µg/mL (≈ 11.4 µM) | 1020 µg/mL (≈ 2930 µM) | 128 µg/mL | 32 µg/mL (≈ 91.6 µM) | 32 µg/mL | Active | 
O=C(N[C@H](CO)[C@H](O)c1ccc([N+](=O)[O-])cc1)C(Cl)Cl [CHLORAMPHENICOL] | 2 µg/mL | 2 µg/mL (≈ 6.19 µM) | 1 µg/mL (≈ 3.09 µM) | 4 µg/mL | 4 µg/mL (≈ 12.4 µM) | 128 µg/mL (≈ 396 µM) | 128 µg/mL | 1 µg/mL (≈ 3.09 µM) | 1 µg/mL | Active | 1 µg/mL
O=C(O)c1cn(C2CC2)c2cc(N3CCNCC3)c(F)cc2c1=O [CIPROFLOXACIN] |  |  |  | 0.512 µg/mL |  | 1.02 µg/mL (≈ 3.09 µM) | 2.05 µg/mL | 0.016 µg/mL (≈ 0.0483 µM) | 0.512 µg/mL | Active | 0.064 µg/mL
CC[C@H]1OC(=O)[C@H](C)[C@@H](O[C@H]2C[C@@](C)(OC)[C@@H](O)[C@H](C)O2)[C@H](C)[C@@H](O[C@@H]2O[C@H](C)C[C@H](N(C)C)[C@H]2O)[C@](C)(O)C[C@@H](C)C(=O)[C@H](C)[C@@H](O)[C@]1(C)O [ERYTHROMYCIN] | 16 µg/mL | 16 µg/mL (≈ 21.8 µM) | 4 µg/mL (≈ 5.45 µM) | 1020 µg/mL | 32 µg/mL (≈ 43.6 µM) | 256 µg/mL (≈ 349 µM) | 1020 µg/mL | 32 µg/mL (≈ 43.6 µM) | 1020 µg/mL | Active | 512 µg/mL
NC[C@H]1O[C@H](O[C@H]2[C@H](O)[C@@H](O[C@H]3O[C@H](CO)[C@@H](O)[C@H](N)[C@H]3O)[C@H](N)C[C@@H]2N)[C@H](O)[C@@H](O)[C@@H]1O [KANAMYCIN] | 0.5 µg/mL | 0.5 µg/mL (≈ 1.03 µM) | 1 µg/mL (≈ 2.06 µM) | 32 µg/mL | 1 µg/mL (≈ 2.06 µM) | 64 µg/mL (≈ 132 µM) | 256 µg/mL | 1 µg/mL (≈ 2.06 µM) | 16 µg/mL | Active | 16 µg/mL
CC1COc2c(N3CCN(C)CC3)c(F)cc3c(=O)c(C(=O)O)cn1c23 (stereo not given) [OFLOXACIN] |  |  |  | 1.02 µg/mL | 0.032 µg/mL (≈ 0.0886 µM) | 0.256 µg/mL (≈ 0.708 µM) | 2.05 µg/mL | 0.064 µg/mL (≈ 0.177 µM) | 0.512 µg/mL | Active | 0.032 µg/mL
CC1(C)S[C@@H]2[C@H](NC(=O)Cc3ccccc3)C(=O)N2[C@H]1C(=O)O [PENICILLIN G] |  |  | 64 µg/mL (≈ 191 µM) | 64 µg/mL | 64 µg/mL (≈ 191 µM) | > 4100 µg/mL | 2050 µg/mL | 64 µg/mL (≈ 191 µM) | 64 µg/mL | Active | 64 µg/mL
CN[C@@H]1[C@H](O)[C@H](NC)[C@H]2O[C@@]3(O)C(=O)C[C@@H](C)O[C@H]3O[C@@H]2[C@H]1O [SPECTINOMYCIN] | 4 µg/mL | 4 µg/mL (≈ 12 µM) | 6 µg/mL (≈ 18.1 µM) | 256 µg/mL | 8 µg/mL (≈ 24.1 µM) | 256 µg/mL (≈ 770 µM) | 512 µg/mL | 8 µg/mL (≈ 24.1 µM) | 128 µg/mL | Active | 128 µg/mL
CN[C@@H]1[C@H](O[C@H]2[C@H](O[C@H]3[C@H](O)[C@@H](O)[C@H](N=C(N)N)[C@@H](O)[C@@H]3N=C(N)N)O[C@@H](C)[C@]2(O)C=O)O[C@@H](CO)[C@H](O)[C@H]1O [STREPTOMYCIN] | 1 µg/mL | 1 µg/mL (≈ 1.72 µM) | 2 µg/mL (≈ 3.44 µM) | 32 µg/mL | 2 µg/mL (≈ 3.44 µM) | 8 µg/mL (≈ 13.8 µM) | 64 µg/mL | 2 µg/mL (≈ 3.44 µM) | 16 µg/mL | Active | 16 µg/mL
CN(C)[C@@H]1C(O)=C(C(N)=O)C(=O)[C@@]2(O)C(O)=C3C(=O)c4c(O)cccc4[C@@](C)(O)[C@H]3C[C@@H]12 [TETRACYCLINE] | 1 µg/mL | 1 µg/mL (≈ 2.25 µM) | 0.062 µg/mL (≈ 0.14 µM) | 1 µg/mL | 1 µg/mL (≈ 2.25 µM) | 8 µg/mL (≈ 18 µM) | 8 µg/mL | 1 µg/mL (≈ 2.25 µM) | 1 µg/mL | Active | 0.062 µg/mL
